The results in this text go back to patent US9034882B2, “Inhibitors of human immunodeficiency virus replication” (priority 2012, dated 2015).

For this test, the system named is recombinant NL-Rluc virus. The test is described as follows: Inhibition of HIV replication (NL-RLuc luciferase reporter virus in MT-2 cells). The class given is cell-based. (In general: A reporter such as luciferase makes a cellular process visible.)
[1] abbreviates: Human immunodeficiency virus 1, MT2, 120 h, read-out: Activity.
Setting [2] is: Human immunodeficiency virus 1, MT2, 120 h, read-out: EC50 μM.

The structures appear in SMILES notation. Where two headings read alike, the source gives them in different places.

For the compound `Cc1nc2cc(-c3ccccc3)nn2c(N2CCC(C)(C)CC2)c1C(OC(C)(C)C)C(=O)O` (stereo not drawn) [Example 1, 2-(tert-butoxy)-2-(7-(4,4-dimethylpiperidin-1-yl)-5-methyl-2-phenylpyrazolo[1,5a]pyrimidin-6-yl)acetic acid], the EC50 by setting is: under setting [1], 0.1 to 1 µM; under setting [2], 0.55 µM.

As for `Cc1nc2cc(-c3ccccc3)nn2c(N2CCCCC2)c1C(OC(C)(C)C)C(=O)O` (stereo not drawn) [Example 2, 2-(tert-butoxy)-2-(7-(lpiperidin-1-yl)-5-methyl-2-phenylpyrazolo[1,5a]pyrimidin-6-yl)acetic acid], the EC50 under setting [1] is greater than 1 µM and the EC50 under setting [2] came to 5 µM.

For `Cc1nc2cc(-c3ccccc3)nn2c(N2CCc3ccccc3C2)c1C(OC(C)(C)C)C(=O)O` (stereo not drawn) [Example 3, 2-(tert-butoxy)-2-(7-(3,4-dijydroisoquinolin-2(1H)-yl)-5-methyl-2-phenylpyrazolo[1,5a]pyrimidin-6-yl)acetic acid], the EC50 under setting [1] was greater than 1 µM.

As for `Cc1nc2cc(-c3ccccc3)nn2c(N2CCCNCC2)c1C(OC(C)(C)C)C(=O)O` (stereo not drawn) [Example 4, 2(7-(1,4-diazepan-1-yl)-5-methyl-2-phenylpyrazolo[1,5a]pyrimidin-6-yl)-2-(tert-butoxy)-acetic acid], the EC50 under setting [1] is greater than 1 µM.

In the case of `Cc1nc2cc(-c3ccccc3)nn2c(N2Cc3ccccc3C2)c1C(OC(C)(C)C)C(=O)O` (stereo not drawn) [Example 5, 2-(tert-butoxy)-2-(7-(isoindolin-2-yl)-5-methyl-2-phenylpyrazolo[1,5a]pyrimidin-6-yl)acetic acid], the EC50 under setting [1] is greater than 1 µM.

`Cc1nc2cc(-c3ccccc3)nn2c(N2CCCCCC2)c1C(OC(C)(C)C)C(=O)O` (stereo not drawn) [Example 6, 2(7-(azepan-1-yl)-5-methyl-2-phenylpyrazolo[1,5a]pyrimidin-6-yl)-2-(tert-butoxy)-acetic acid]: the EC50 under setting [1] is greater than 1 µM.

Consider `Cc1nc2cc(-c3ccccc3)nn2c(N2CCN(C)CC2)c1C(OC(C)(C)C)C(=O)O` (stereo not drawn) [Example 7, 2-(tert-butoxy)-2-(5-methyl-7(4-methylpiperazin-1-yl)-2-phenylpyrazolo[1,5a]pyrimidin-6-yl)acetic acid], for which the EC50 was greater than 1 µM under setting [1] and 5.2 µM under setting [2].

Consider `Cc1nc2cc(-c3ccccc3)nn2c(N2CCC(C)CC2)c1C(OC(C)(C)C)C(=O)O` (stereo not drawn) [Example 8, 2-(tert-butoxy)-2-(5-methyl-7-(4-methylpiperidin-1-yl)-2-phenylpyrazolo[1,5a]pyrimidin-6-yl)acetic acid], for which the EC50 runs as follows: under setting [1], 0.1 to 1 µM; under setting [2], 0.72 µM.

For `Cc1nc2cc(-c3ccccc3)nn2c(N2C(C)COCC2C)c1C(OC(C)(C)C)C(=O)O` (stereo not drawn) [Example 9], the EC50 under setting [1] is greater than 1 µM.

Consider `Cc1nc2cc(-c3ccccc3)nn2c(N2CCCC(C)C2)c1C(OC(C)(C)C)C(=O)O` (stereo not drawn) [Example 10], for which the EC50 under setting [1] was greater than 1 µM.

Regarding `COC1CCN(c2c(C(OC(C)(C)C)C(=O)O)c(C)nc3cc(-c4ccccc4)nn23)CC1` (stereo not drawn) [Example 11], the EC50 under setting [1] is greater than 1 µM.

Take `Cc1nc2cc(-c3ccccc3)nn2c(N2CCC(F)CC2)c1C(OC(C)(C)C)C(=O)O` (stereo not drawn) [Example 12]: under setting [1], the EC50 was greater than 1 µM.

As for `Cc1nc2cc(-c3ccccc3)nn2c(N2CCC(C(=O)O)CC2)c1C(OC(C)(C)C)C(=O)O` (stereo not drawn) [Example 13], the EC50 under setting [1] was greater than 1 µM.

In the case of `Cc1nc2cc(-c3ccccc3)nn2c(N2CC[C@@H]3CCCC[C@@H]3C2)c1C(OC(C)(C)C)C(=O)O` (stereo partly drawn) [Example 14], under setting [1], the EC50 was in the range of 0.1 to 1 µM.

Regarding `Cc1nc2cc(-c3ccccc3)nn2c(N2CCC(O)CC2)c1C(OC(C)(C)C)C(=O)O` (stereo not drawn) [Example 15], under setting [1], the EC50 is greater than 1 µM.

In the case of `Cc1nc2cc(-c3ccccc3)nn2c(N2CCC(C(C)C)CC2)c1C(OC(C)(C)C)C(=O)O` (stereo not drawn) [Example 16], the EC50 runs as follows: under setting [1], 0.1 to 1 µM; under setting [2], 0.77 µM.

Consider `Cc1nc2cc(-c3ccccc3)nn2c(N2CCC(C(C)(C)C)CC2)c1C(OC(C)(C)C)C(=O)O` (stereo not drawn) [Example 17], for which the EC50 under setting [1] is greater than 1 µM.

For the compound `Cc1nc2cc(-c3ccccc3)nn2c(N2CCCC(F)C2)c1C(OC(C)(C)C)C(=O)O` (stereo not drawn) [Example 18], the EC50 under setting [1] was greater than 1 µM.

Regarding `Cc1nc2cc(-c3ccccc3)nn2c(N2CCCCC2C)c1C(OC(C)(C)C)C(=O)O` (stereo not drawn) [Example 19], under setting [1], the EC50 fell in the range of 0.1 to 1 µM.

For `Cc1nc2cc(-c3ccccc3)nn2c(N2CCCCC2C)c1C(OC(C)(C)C)C(=O)O` (stereo not drawn) [Example 20], the EC50 (read-out: Activity, MT-2 cells infected with NL-RLuc virus, 5 days of incubation, luciferase readout, serum condition not given) is 0.1 to 1 µM.

On to `Cc1nc2cc(-c3ccccc3)nn2c(N2CCC(F)(F)CC2)c1C(OC(C)(C)C)C(=O)O` (stereo not drawn) [Example 21], for which the EC50 under setting [1] was greater than 1 µM.

Take `Cc1nc2cc(-c3ccccc3)nn2c(N2CCC(Br)CC2)c1C(OC(C)(C)C)C(=O)O` (stereo not drawn) [Example 22]: the EC50 under setting [1] is greater than 1 µM.

Regarding `Cc1nc2cc(-c3ccccc3)nn2c(N2CCC(C(F)(F)F)CC2)c1C(OC(C)(C)C)C(=O)O` (stereo not drawn) [Example 23], the EC50 under setting [1] was greater than 1 µM.

Take `Cc1nc2cc(-c3ccccc3)nn2c(N2CCC(C(N)=O)CC2)c1C(OC(C)(C)C)C(=O)O` (stereo not drawn) [Example 24]: the EC50 under setting [1] is greater than 1 µM.

As to `Cc1nc2cc(-c3ccccc3)nn2c(N2CCCC2C(C)C)c1C(OC(C)(C)C)C(=O)O` (stereo not drawn) [Example 25], the EC50 under setting [1] was greater than 1 µM.

As to `Cc1nc2cc(-c3ccccc3)nn2c(N2CCC3(CCCC3)C2)c1[C@H](OC(C)(C)C)C(=O)O` [Example 26, (S)-2-(tert-butoxy)-2-(5-methyl-2-phenyl-7-(2-azaspiro[4.4]nonan-2-yl)pyrazolo[1,5-a]pyrimidin-6-yl)acetic acid], the EC50 runs as follows: under setting [1], 0.1 to 1 µM; under setting [2], 0.3 µM.

With `Cc1nc2cc(-c3ccccc3)nn2c(N2CCC3(CCCC3)CC2)c1[C@H](OC(C)(C)C)C(=O)O` [Example 27, (S)-2-(tert-butoxy)-2-(5-methyl-2-phenyl-7-(8-azaspiro[4.5]decan-8-yl)pyrazolo[1,5-a]pyrimidin-6-yl) acetic acid], the EC50 under setting [1] was greater than 1 µM.

`Cc1nc2cc(-c3ccccc3)nn2c(N2CCC(C)(C)C2)c1[C@H](OC(C)(C)C)C(=O)O` [Example 28, (S)-2-(tert-butoxy)-2-(7-(3,3-dimethylpyrrolidin-1-yl)-5-methyl-2-phenylpyrazolo[1,5-a]pyrimidin-6-yl)acetic acid]: under setting [1], the EC50 was in the range of 0.1 to 1 µM.

For `CCC1(C)CCN(c2c([C@H](OC(C)(C)C)C(=O)O)c(C)nc3cc(-c4ccccc4)nn23)CC1` [Example 29, (S)-2-(tert-butoxy)-2-(7-(4-ethyl-4-methylpiperidin-1-yl)-5-methyl-2-phenylpyrazolo[1,5-a]pyrimidin-6-yl)acetic acid], under setting [1], the EC50 was 0.1 to 1 µM.

In the case of `Cc1nc2cc(-c3ccccc3)nn2c(N2CCC3(CC2)CC3)c1[C@H](OC(C)(C)C)C(=O)O` [Example 30, (S)-2-(tert-butoxy)-2-(5-methyl-2-phenyl-7-(6-azaspiro[2.5]octan-6-yl)pyrazolo[1,5-a]pyrimidin-6-yl)acetic acid], under setting [1], the EC50 fell in the range of 0.1 to 1 µM.

For `Cc1nc2cc(-c3cccc(OCc4ccccc4)c3)nn2c(N2CCC(C)CC2)c1C(OC(C)(C)C)C(=O)O` (stereo not drawn) [Example 31, 2-(2-(3-(benzyloxy)phenyl)-5-methyl-7-(4-methylpiperidin-1-yl)pyrazolo[1,5-a]pyrimidin-6-yl)20(tert-butoxy)acetic acid], the EC50 under setting [1] is less than 0.1 µM.

As for `Cc1nc2cc(-c3cccc(OCc4ccccc4)c3)nn2c(N2CCC(C)(C)CC2)c1C(OC(C)(C)C)C(=O)O` (stereo not drawn) [Example 32, 2-(2-(3-(benzyloxy)phenyl)-7-(4,4-dimethylpiperidin-1-yl)-5-methylpyrazolo[1,5-a]pyrimidin-6-yl)2-(tert-butoxy)acetic acid], the EC50 runs as follows: under setting [1], less than 0.1 µM; under setting [2], 0.06 µM.
